Laboratory results reported in US11667649B2, “Heteroaromatic macrocyclic ether chemotherapeutic agents” (Nuvalent, Inc., priority 2020, dated 2023).

How the values were obtained:
ALK-wt kinase domain = target: T1, ALK-wt kinase domain (Homo sapiens, UniProt Q9UM73); experiment: Biochemical kinase assay, ALK-wt; details: 2 mM ATP substrate solution, read-out: Ki^app ALK-wt
T1 construct: TRKA-wt (1 nM, BPS Bio, 40280) kinase domains in buffer; purchased Carna 08-518
Protocol: (§1) First, 250 nL of compound dissolved in DMSO (100-fold of the desired concentration) was dispensed into a 384-well plate. A 12.5 μL substrate solution containing ATP (2 mM) and fluorogenic phosphorylation substrate AQT0101 (26 μM for ALK and ROS1, AssayQuant) or AQT0104 (26 μM for TRKA, AssayQuant) in buffer (50 mM HEPES pH 7.5, 0.01% Brij-35, 0.5 mM EGTA, 10 mM MgCl2) was added and mixed thoroughly. Then, a 12.5 μL kinase solution containing ALK-wt (1.5 nM, Carna, 08-518), ALK ALK L1196M/G1202R (3 nM, SignalChem, A19-12NG), ROS1-wt (0.6 nM, Carna, 08-163), ROS1-G2032R (0.5 nM, SignalChem, R14-12BG), or TRKA-wt (1 nM, BPS Bio, 40280) kinase domains in buffer ([…] HEPES pH 7.5, 0.01% Brij-35, 2% glycerol, 0.4 mg/mL BSA, 0.5 mM EGTA, and 10 mM MgCl2) was added and mixed thoroughly. The plate was sealed and read by SpectraMax Paradigm at λ=485 nm every 2 minutes for 120 minutes at 30° C. Initial rates of reaction (v) were calculated from the change in fluorescence intensity over time during the initial, linear portion of the reaction. Finally, apparent inhibitory constants (Ki^app) were determined from regression of v and I (inhibitor concentration) to Morrison Equation (E=enzyme concentration): […]

[1] = target: T2, ALK L1196M/G1202R kinase domain (Homo sapiens, UniProt Q9UM73, G1202R/L1196M); experiment: Biochemical kinase assay, ALK L1196M/G1202R; details: 2 mM ATP substrate solution, read-out: Ki^app ALK-L1196M-G1202R
T2 construct: TRKA-wt (1 nM, BPS Bio, 40280) kinase domains in buffer; purchased SignalChem A19-12NG
Protocol: as §1

ROS1-wt kinase domain = target: T3, ROS1-wt kinase domain (Homo sapiens, UniProt P08922); experiment: Biochemical kinase assay, ROS1-wt; details: 2 mM ATP substrate solution, read-out: Ki^app ROS1-wt
T3 construct: TRKA-wt (1 nM, BPS Bio, 40280) kinase domains in buffer; purchased Carna 08-163
Protocol: as §1

[2] = target: T4, ROS1-G2032R kinase domain (Homo sapiens, UniProt P08922, G2032R); experiment: Biochemical kinase assay, ROS1-G2032R; details: 2 mM ATP substrate solution, read-out: Ki^app ROS1-G2032R
T4 construct: TRKA-wt (1 nM, BPS Bio, 40280) kinase domains in buffer; purchased SignalChem R14-12BG
Protocol: as §1

TRKA-wt kinase domain = target: T5, TRKA-wt kinase domain (Homo sapiens, UniProt P04629); experiment: Biochemical kinase assay, TRKA-wt; details: 2 mM ATP substrate solution, read-out: Ki^app TRKA-wt
T5 construct: TRKA-wt (1 nM, BPS Bio, 40280) kinase domains in buffer; purchased BPS Bio 40280
Protocol: as §1

Structure (SMILES)	Ki (ALK-wt kinase domain)	Ki [1]	Ki (ROS1-wt kinase domain)	Ki [2]	Ki (TRKA-wt kinase domain)
CCn1ncc2c1-c1cnc(N)c(c1)O[C@H](C)c1cc(F)ccc1-c1nccn1C2 [Compound 31]	< 50 nM	< 50 nM	< 50 nM	< 50 nM	< 50 nM
CCn1ncc2c1-c1cnc(N)c(c1)O[C@H](C)c1cc(F)ccc1-n1nccc1C2 [Compound 33]	< 50 nM	< 50 nM	< 50 nM	< 50 nM	< 50 nM
CCc1nn(C)c2c1-c1cnc(N)c(c1)OCc1cc(F)ccc1-c1nc(C)sc1C2 [Compound 175]	< 50 nM	< 50 nM	< 50 nM	< 50 nM	50 to 500 nM
Cc1nc2c(s1)Cc1cnn(C(F)F)c1-c1cnc(N)c(c1)O[C@H](C)c1cc(F)ccc1-2 [Compound 72]	< 50 nM	< 50 nM	< 50 nM	< 50 nM	50 to 500 nM
CC(C)n1nc2c(c1C#N)-c1cnc(N)c(c1)O[C@H](C)c1cc(F)ccc1-n1nccc1C2 [Compound 118]	< 50 nM	50 to 500 nM	< 50 nM	> 500 nM	< 50 nM
CCn1nc(C)c2c1-c1cnc(N)c(c1)O[C@H](C)c1cc(F)ccc1-c1nn(C)cc1C2 [Compound 81]	< 50 nM	< 50 nM	< 50 nM	< 50 nM	50 to 500 nM
C[C@H]1Oc2cc(cnc2N)-c2c(nnn2CC2CC2)Cc2cc(F)cnc2-c2ccc(F)cc21 [Compound 106]	< 50 nM	< 50 nM	< 50 nM	< 50 nM	50 to 500 nM
CCn1cc2c(n1)-c1ccc(F)cc1[C@@H](C)Oc1cc(cnc1N)-c1c(cnn1CC1CC1)C2 [Compound 140]	< 50 nM	< 50 nM	< 50 nM	< 50 nM	50 to 500 nM
CCn1ncc2c1-c1cnc(N)c(c1)OCc1cc(F)ccc1-c1nn(C)cc1C2 [Compound 49]	< 50 nM	50 to 500 nM	< 50 nM	50 to 500 nM	> 500 nM
C[C@H]1Oc2cc(cnc2N)-c2c(C#N)ncn2Cc2ccncc2-c2ccc(F)cc21 [Compound 11]	< 50 nM	50 to 500 nM	< 50 nM	< 50 nM	> 500 nM
C[C@H]1Oc2cc(cnc2N)-c2c(CC(F)F)noc2Cc2cn(C)nc2-c2ccc(F)cc21 [Compound 85]	< 50 nM	< 50 nM	< 50 nM	< 50 nM	> 500 nM
C[C@H]1Oc2cc(cnc2N)-c2c(CC3CC3)cnn2Cc2cccnc2-c2ccc(F)cc21 [Compound 146]	< 50 nM	< 50 nM	< 50 nM	< 50 nM	50 to 500 nM
Cc1nn(CC2CC2)c2c1Cc1cccnc1-c1ccc(F)cc1[C@@H](C)Oc1cc-2cnc1N [Compound 135]	< 50 nM	< 50 nM	< 50 nM	< 50 nM	50 to 500 nM
CCc1noc2c1-c1cnc(N)c(c1)OCc1cc(F)ccc1-c1nn(C)cc1C2 [Compound 30]	< 50 nM	< 50 nM	< 50 nM	50 to 500 nM	> 500 nM
Cc1nc2c(s1)Cc1c(c(C#N)nn1C)-c1cnc(N)c(c1)O[C@H](C)c1cc(F)ccc1-2 [Compound 82]	< 50 nM	< 50 nM	< 50 nM	< 50 nM	50 to 500 nM
C[C@H]1Oc2cc(cnc2N)-c2c(C#N)cnn2Cc2cccnc2-c2ccc(F)cc21 [Compound 14]	< 50 nM	< 50 nM	< 50 nM	< 50 nM	50 to 500 nM
CCn1ncc2c1-c1cnc(N)c(c1)O[C@H](C)c1cc(F)ccc1-c1nn(C(F)F)cc1C2 [Compound 86]	< 50 nM	50 to 500 nM	< 50 nM	< 50 nM	> 500 nM
C[C@H]1Oc2cc(cnc2N)-c2c(nnn2CC2CC2)Cc2cc(C(F)(F)F)nn2-c2ccc(F)cc21 [Compound 128]	< 50 nM	< 50 nM	< 50 nM	< 50 nM	50 to 500 nM
CCn1ncc2c1-c1cnc(N)c(n1)OC(C)c1cc(F)ccc1-c1c(cnn1C)C2 (stereo not shown) [Compound 164]	< 50 nM	50 to 500 nM	< 50 nM	< 50 nM	> 500 nM

The next lines start with the values.

Ki (ALK-wt kinase domain)	Ki [1]	Ki (ROS1-wt kinase domain)	Ki [2]	Ki (TRKA-wt kinase domain)	Structure (SMILES)
< 50 nM	< 50 nM	< 50 nM	< 50 nM	< 50 nM	CCn1nc(Cl)c2c1-c1cnc(N)c(c1)O[C@H](C)c1cc(F)ccc1-n1nc(C)cc1C2 [Compound 76]
< 50 nM	< 50 nM	< 50 nM	< 50 nM	50 to 500 nM	C[C@H]1Oc2cc(cnc2N)-c2c(nn(C)c2CC2CC2)Cc2ccnn2-c2ccc(F)cc21 [Compound 177]
< 50 nM	< 50 nM	< 50 nM	< 50 nM	> 500 nM	C[C@H]1Oc2cc(cnc2N)-c2c(C#N)ncn2Cc2cn(C)nc2-c2ccc(F)cc21 [Compound 13]
< 50 nM	< 50 nM	< 50 nM	< 50 nM	< 50 nM	CCc1nn(CC)c2c1Cc1cn(C)nc1-c1ccc(F)cc1[C@@H](C)Oc1cc-2cnc1N [Compound 158]
< 50 nM	< 50 nM	< 50 nM	< 50 nM	50 to 500 nM	Cc1nc2c(s1)Cn1ncc(C#N)c1-c1cnc(N)c(c1)O[C@H](C)c1cc(F)ccc1-2 [Compound 67]
< 50 nM	< 50 nM	< 50 nM	< 50 nM	50 to 500 nM	C[C@H]1Oc2cc(cnc2N)-c2c(nn(C)c2C#N)Cc2cn(C)nc2-c2ccc(F)cc21 [Compound 111]
< 50 nM	< 50 nM	< 50 nM	50 to 500 nM	< 50 nM	CCn1nc2c(c1C#N)-c1cnc(N)c(c1)O[C@H](C)c1cc(F)ccc1-n1nccc1C2 [Compound 119]
< 50 nM	< 50 nM	< 50 nM	50 to 500 nM	> 500 nM	C[C@H]1Oc2cc(cnc2N)-c2c(C#N)cnn2Cc2ccnn2-c2ccc(F)cc21 [Compound 62]
< 50 nM	50 to 500 nM	< 50 nM	< 50 nM	> 500 nM	CCn1ncc2c1-c1cnc(N)c(c1)OC(C)c1cc(F)ccc1-n1cncc1C2 (stereo not shown) [Compound 38]
< 50 nM	< 50 nM	< 50 nM	< 50 nM	50 to 500 nM	CCn1nnc2c1-c1cnc(N)c(c1)O[C@H](C)c1cc(F)ccc1-c1ncc(F)cc1C2 [Compound 70]
< 50 nM	< 50 nM	< 50 nM	< 50 nM	< 50 nM	C[C@H]1Oc2cc(cnc2N)-c2c(nn(C)c2C#N)Cc2ccnn2-c2ccc(F)cc21 [Compound 169]
< 50 nM	< 50 nM	< 50 nM	< 50 nM	50 to 500 nM	CCn1nnc2c1-c1cnc(N)c(c1)O[C@H](C)c1cc(F)ccc1-c1nn(C)cc1C2 [Compound 20]
< 50 nM	50 to 500 nM	< 50 nM	< 50 nM	50 to 500 nM	CC1Oc2cc(cnc2N)-c2c(cnn2C(F)F)Cn2ccnc2-c2ccc(F)cc21 (stereo not shown) [Compound 44]
< 50 nM	< 50 nM	< 50 nM	< 50 nM	< 50 nM	CCn1ncc2c1-c1cnc(N)c(c1)O[C@H](C)c1cc(F)ccc1-c1nn(C)c(C)c1C2 [Compound 87]
< 50 nM	< 50 nM	< 50 nM	< 50 nM	50 to 500 nM	C[C@H]1Oc2cc(cnc2N)-c2c(cnn2C2COC2)Cc2cn(C)nc2-c2ccc(F)cc21 [Compound 139]
< 50 nM	< 50 nM	< 50 nM	< 50 nM	> 500 nM	CC(C)Cn1ncc2c1-c1cnc(N)c(c1)O[C@H](C)c1cc(F)ccc1-c1nn(C)cc1C2 [Compound 154]
